According to patent publication US5776718A, “Reversible protease inhibitors” (Arris Pharmaceutical Corporation, priority 1996, dated 1998):
pKi: −log10 of the molar value. Read-outs that look alike come from different tables or passages of the source.

Tests used:
cruzain = cruzain (Trypanosoma cruzi, UniProt P25779); experiment: Inhibition of cruzain (conditions as for cathepsin L); format: biochemical, T. cruzi; settings: for Ki: 50 mM acetate, pH 5.5, 2.5 mM EDTA, 2.5 mM DTT, Km 1 mM, Dixon plot, read-out: cruzain (Ki μM)
cruzain, sequence (P25779 123-467): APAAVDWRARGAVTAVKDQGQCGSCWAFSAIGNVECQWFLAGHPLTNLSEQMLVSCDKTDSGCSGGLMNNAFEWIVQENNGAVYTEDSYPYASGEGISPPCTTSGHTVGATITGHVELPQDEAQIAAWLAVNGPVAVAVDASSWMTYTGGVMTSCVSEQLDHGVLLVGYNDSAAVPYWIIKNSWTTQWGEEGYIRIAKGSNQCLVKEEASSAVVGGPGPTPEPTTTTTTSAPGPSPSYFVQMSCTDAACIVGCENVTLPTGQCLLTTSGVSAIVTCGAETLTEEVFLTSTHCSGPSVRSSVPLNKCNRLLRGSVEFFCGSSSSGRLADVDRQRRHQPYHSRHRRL
Method: (§1) Conditions for cathepsin L: 50 mM acetate, pH 5.5, 2.5 mM EDTA, 2.5 mM DTT. substrate: [Z-Phe-Arg-AMC]=5 mM (Km=2 mM). The assay at 25^0 was started by the addition of cat L (final concentration approx 1 nM) and the increase in fluorescence at 450 nm with excitation at 380 nm was followed over 2 min. The depression in the rate of substrate hydrolysis following addition of varying concentrations of inhibitors was noted. The assay was linear throughout the range observed. Duplicate runs were measured.
Conditions for cruzain were the same as for cathepsin L with the exception that the Km for the substrate was 1 mM.
(§2) The respective Ki values were estimated by using the Dixon plot as described by Irwin Segel in Enzyme Kinetics: Behavior and analysis of rapid equilibrium and steady-state enzyme systems, 1975, Wiley-lnterscience Publication, John Wiley & Sons, New York.

cathepsin L = cathepsin L (Homo sapiens, UniProt P07711); experiment: Inhibition of cathepsin L, fluorogenic substrate Z-Phe-Arg-AMC; format: biochemical; settings: for Ki: 50 mM acetate, pH 5.5, 2.5 mM EDTA, 2.5 mM DTT, Dixon plot, read-out: cathepsin L (Ki μM)
cathepsin L, sequence (P07711 114-333, species assumed): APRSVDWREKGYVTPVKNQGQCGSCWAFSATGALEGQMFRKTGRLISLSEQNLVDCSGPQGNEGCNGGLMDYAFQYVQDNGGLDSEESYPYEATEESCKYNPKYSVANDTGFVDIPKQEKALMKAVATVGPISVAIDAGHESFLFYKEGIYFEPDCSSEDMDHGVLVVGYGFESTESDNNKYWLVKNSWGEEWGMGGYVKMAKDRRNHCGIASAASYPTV
Method: as §1, §2

cathepsin B = cathepsin B (Homo sapiens, UniProt P07858); experiment: Inhibition of cathepsin B, fluorogenic substrate Z-Arg-Arg-AMC; format: biochemical; settings: for Ki: 50 mM phosphate, pH 6.0, 2.5 mM EDTA, 2.5 mM DTT, Dixon plot, read-out: cathepsin B (Ki μM)
Method: as §1, with “The” for “Conditions for cathepsin L: 50 mM acetate, pH 5.5, 2.5 mM EDTA, 2.5 mM DTT. substrate: [Z-Phe-Arg-AMC]=5 mM (Km=2 mM). The”, “250” for “25^0”, “B” for “L”, “10” for “1”
as §2

cathepsin S = cathepsin S (Homo sapiens, UniProt P25774); experiment: Inhibition of cathepsin S, fluorogenic substrate Z-Val-Val-Arg-AMC; format: biochemical; settings: 50 mM phosphate, pH 6.5, 2.5 mM EDTA, 2.5 mM DTT; Dixon plot
cathepsin S, sequence (P25774 115-331, species assumed): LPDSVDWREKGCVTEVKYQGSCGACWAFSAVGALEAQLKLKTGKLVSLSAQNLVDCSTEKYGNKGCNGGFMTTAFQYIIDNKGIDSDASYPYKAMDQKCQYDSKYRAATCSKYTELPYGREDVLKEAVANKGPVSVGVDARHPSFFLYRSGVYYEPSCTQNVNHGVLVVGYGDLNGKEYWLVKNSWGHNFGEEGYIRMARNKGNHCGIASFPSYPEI
Method: as §1, with “The” for “Conditions for cathepsin L: 50 mM acetate, pH 5.5, 2.5 mM EDTA, 2.5 mM DTT. substrate: [Z-Phe-Arg-AMC]=5 mM (Km=2 mM). The”, “250” for “25^0”, “S” for “L”, “[…])” for “1 nM)”
as §2

Structure (SMILES)	pKi (cruzain)	pKi (cathepsin L)	pKi (cathepsin B)	Ki (cruzain) [µM]	Ki (cathepsin L) [µM]	Ki (cathepsin B) [µM]	Ki (cathepsin S) [µM]
CCOP(=O)(CC[C@H](CCc1ccccc1)NC(=O)[C@H](Cc1ccccc1)NC(=O)N1CCOCC1)OCC [Mu--Phe--HphγPO(O2 Et)2]	4.82	5.52	4.77	–	–	–	–
O=C(N[C@@H](CCc1ccccc1)CS(=O)(=O)c1ccccc1)[C@H](Cc1ccccc1)NC(=O)N1CCOCC1 [Mu--Phe--HphβSO2 Ph, N^1-(4-morpholinylcarbonyl)-N^1-(3-phenyl-1S-phenylsulfonylmethylpropyl)-L-phenylalaniamide]	–	–	–	5.7	29	1100	–
O=C(O)CCC(=O)N[C@@H](Cc1ccc2ccccc2c1)C(=O)N[C@@H](CCc1ccccc1)CCS(=O)(=O)c1ccc2ccccc2c1 [Suc--Np2--HphγSO2 2Np]	–	–	–	0.23	0.11	> 1000	–
NCCC(=O)N[C@@H](Cc1ccccc1)C(=O)N[C@@H](CCc1ccccc1)CCS(=O)(=O)c1ccccc1 [β-Ala--Phe--HphγSO2 Ph, N^2-(β-alanyl)-N^1-[3-phenyl-1S-(2-phenylsulfonylethyl)propyl]-L-phenylalaninamide]	–	–	–	14	14	–	–
CC(C)C[C@H](NC(=O)N1CCOCC1)C(=O)NC(CCc1ccccc1)S(=O)(=O)c1ccccc1 (stereo partly drawn) [Mu--Leu--HphαSO2 Ph, N^2-(4-morpholinylcarbonyl)-N^1-(3-phenyl-1-phenylsulfonylpropyl)-L-leucinamide]	–	–	–	0.27	1.3	16	1.6
CC(C)C[C@H](NC(=O)N1CCOCC1)C(=O)NC(CCc1ccccc1)S(=O)(=O)Cc1ccccc1 (stereo partly drawn) [Mu--Leu--HphαSO2 Bzl, N^2-(4-morpholinylcarbonyl)-N^1-(3-phenyl-1-benzylsulfonylpropyl)-L-leucinamide]	–	–	–	0.76	0.6	54	4.2
O=C(O)CCC(=O)N[C@@H](Cc1ccc2ccccc2c1)C(=O)N[C@@H](CCc1ccccc1)CCS(=O)(=O)c1ccccc1 [Suc--Np2--HphγSO2 Ph, 3-{2-naphthyl-1S-[3-phenyl-1S-(2-phenylsulfonylethyl)propylcarbamoyl]ethylcarbamoyl}propionic acid]	–	–	–	0.78	2.3	> 1000	–
CCOC(=O)CC[C@H](CCc1ccccc1)NC(=O)[C@H](Cc1ccccc1)NC(=O)N1CCOCC1 [Mu--Phe--HphγCO2 Et, ethyl 4S-[N-(4-morpholinylcarbonyl)-L-phenylalanylamino]-6-phenylhexanoate]	–	–	–	0.91	0.48	1.6	–
O=C(NC(CCc1ccccc1)S(=O)(=O)C(F)(F)F)[C@H](Cc1ccccc1)NC(=O)N1CCOCC1 (stereo partly drawn) [Mu--Phe--HphαSO2 CR3, N^2-(4-morpholinylcarbonyl)-N^1-(3-phenyl-1-trifluoromethylsulfonylpropyl)-L-phenylalaninamide]	–	–	–	0.23	0.18	50	–
COc1ccc(CC[C@H](CCc2ccccc2)NC(=O)[C@H](Cc2ccccc2)NC(=O)N2CCOCC2)cc1 [Mu--Phe--Hph-γPh--OMe, N^2-(4-morpholinylcarbonyl)-N^1 -{3-phenyl-1S-[2-(4-methoxyphenyl)ethyl]propyl}-L-phenylalaninamide]	–	–	–	0.89	0.94	4.8	–
O=C(CC[C@H](CCc1ccccc1)NC(=O)[C@H](Cc1ccccc1)NC(=O)N1CCOCC1)NCc1ccccc1 [Mu--Phe--HphγCONHBzl, N^2-(4-morpholinylcarbonyl)-N^1-[3-phenyl-1S-(2-benzylcarbamoylethyl)propyl]-L-phenylalaninamide]	–	–	–	7.7	19	–	–
O=C(NC(CCc1ccccc1)S(=O)(=O)Cc1ccccc1)[C@H](Cc1ccccc1)NC(=O)N1CCOCC1 (stereo partly drawn) [Mu--Phe--HphαSO2 Bzl, N^2-(4-morpholinylcarbonyl)-N^1-(3-phenyl-1-benzylsulfonylpropyl)-L-phenylalaninamide]	–	–	–	0.92	1.2	77	–
O=C(NC(CCc1ccccc1)S(=O)(=O)c1ccccc1)[C@H](Cc1ccccc1)NC(=O)N1CCOCC1 (stereo partly drawn) [Mu--Phe--(DL)HphαSO2 Ph, N^2-(4-morpholinylcarbonyl)-N^1-(3-phenyl-1-phenylsulfonylpropyl)-L-phenylalaninamide]	–	–	–	15	13	3000	5
O=C(CCNC(=O)OCc1ccccc1)N[C@@H](Cc1ccccc1)C(=O)N[C@@H](CCc1ccccc1)CCS(=O)(=O)c1ccccc1 [Z--β-Ala--Phe--HphγSO2 Ph, M-(N-benzyloxycarbonyl-β-alanyl)-N^1-[3-phenyl-1S-(2-phenylsulfonylethyl)propyl]-L-phenylalaninamide]	–	–	–	0.54	0.79	52	–
O=C(N[C@@H](CCc1ccccc1)CCS(=O)(=O)c1ccccc1)[C@H](Cc1ccccc1)NC(=O)N1CCOCC1 [Mu--Phe--HphγSO2 Ph, N^2-(4-morpholinylcarbonyl)-N^1-[3-phenyl-1S-(2-phenylsulfonylethyl)propyl]-L-phenylalaninamide]	–	–	–	4.3	10	48	–
O=C(NC(CCc1ccccc1)S(=O)(=O)c1ccccc1)[C@H](Cc1ccccc1)NC(=O)N1CCOCC1 (stereo partly drawn) [Mu--Phe--(DL)HphαSO2 Ph,]	–	–	–	–	–	–	3.7
O=C(NC(CCc1ccccc1)S(=O)(=O)CF)[C@H](Cc1ccccc1)NC(=O)N1CCOCC1 (stereo partly drawn) [Mu--Phe--HphαSO2 CH2 F, N^2-(4-morpholinylcarbonyl)-N^1-(3-phenyl-1-fluoromethylsulfonylpropyl)-L-phenylalaninamide]	–	–	–	2	1.5	170	2.8
O=C(N[C@@H](CCc1ccccc1)CCS(=O)(=O)CCc1ccccc1)[C@H](Cc1ccccc1)NC(=O)N1CCOCC1 [Mu--Phe--HphγSO2 EtPh, N^2-(4-morpholinylcarbonyl)-N^1 -{3-phenyl-1S-[2-(2-phenylethylsulfonyl)ethyl]propyl}-L-phenylalaninamide]	–	–	–	5.9	0.17	–	–
O=C(N[C@@H](CCc1ccccc1)CCS(=O)(=O)c1ccc2ccccc2c1)[C@H](Cc1ccc2ccccc2c1)NC(=O)N1CCOCC1 [Mu--Np2-HphγSO2 Np, N^2-(4-morpholinylcarbonyl)-N^1 -{3-phenyl-1S-[2-(2-naphthylsulfonyl)ethyl]propyl}-β-(2-naphthyl)-L-alaninamide]	–	–	–	0.1	0.26	20	–
Nc1ccc(CC[C@H](CCc2ccccc2)NC(=O)[C@H](Cc2ccccc2)NC(=O)N2CCOCC2)cc1 [Mu--Phe--Hph--γPh--NH2, N^2-(4-morpholinylcarbonyl)-N^1 -{3-phenyl-1S-[2-(4-aminophenyl)ethyl]propyl}-L-phenylalaninamide]	–	–	–	3	2.9	–	–
O=C(N[C@@H](CCc1ccccc1)S(=O)(=O)c1ccccc1)[C@H](Cc1ccccc1)NC(=O)N1CCOCC1 [Mu--Phe--HphαSO2 Ph]	–	–	–	–	–	–	2.6
O=C(O)CCC(=O)N[C@@H](Cc1ccccc1)C(=O)N[C@@H](CCc1ccccc1)CCS(=O)(=O)c1ccccc1 [Suc--Phe--HphγSO2 Ph, 3-{2-phenyl-1S-[3-phenyl-1S-(2-phenylsulfonylethyl)propylcarbamoyl]ethylcarbamoyl}propionic acid]	–	–	–	1.5	1	> 1000	–
O=C(Cc1ccccc1)N[C@@H](Cc1ccccc1)C(=O)N[C@@H](CCc1ccccc1)CCS(=O)(=O)c1ccccc1 [Phac--Phe--HphγSO2 Ph, N^2-phenylacetyl-N^1-[3-phenyl-1S-(2-phenylsulfonylethyl)propyl]-L-phenylalaninamide]	–	–	–	1.8	0.41	> 10	–
O=C(N[C@@H](CCc1ccccc1)CCS(=O)(=O)c1ccccc1)[C@H](Cc1ccc(O)cc1)NC(=O)N1CCOCC1 [Mu--Tyr--HphγSO2 Ph, (S)-3-(4-morpholinecarbonyltyrosyl)-amino-5-phenyl-1-phenylsulfonylpentane]	4.70	–	–	–	2.3	–	–
COC(=O)CCC(=O)N[C@@H](Cc1ccccc1)C(=O)N[C@@H](CCc1ccccc1)CCS(=O)(=O)c1ccccc1 [MeOSuc--Phe--HphγSO2 Ph, methyl 3-{2-phenyl-1S-[3-phenyl-1S-(2-phenylsulfonylethyl)propylcarbamoyl]ethylcarbamoyl}propionate]	–	–	–	4.7	3.2	81	–
O=C(CC[C@H](CCc1ccccc1)NC(=O)[C@H](Cc1ccccc1)NC(=O)N1CCOCC1)Nc1ccccc1 [Mu--Phe--HphγCONHPh, N^2-(4-morpholinylcarbonyl)-N^1-[3-phenyl-1S-(2-phenylcarbamoylethyl)propyl]-L-phenylalaninamide]	–	–	–	0.13	2	2.6	–
